Assay results as given in ChEMBL document CHEMBL1201862, “PubChem BioAssay data set” (2004).
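96-well plates; 48 h exposure; 5 concentrations. Endpoints by linear interpolation between flanking doses. Not reached: highest tested concentration assigned. Abbreviation: GI50, concentration required for 50% inhibition of growth.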 Active and inactive are the calls of the source. Cut-off read from the data, not from the text of the source: active = GI50 up to about 1.1 µM and inactive = higher.

Legend:
Assay in all cases: NCI tumour cell line growth inhibition, 48 h
[1] = system: 786-0
[2] = system: A498
[3] = system: A549
[4] = system: ACHN
[5] = system: BT-549
[6] = system: CAKI-1
[7] = system: CCRF-CEM
[8] = system: COLO 205
[9] = system: DU-145
[10] = system: EKVX
[11] = system: HCC 2998
[12] = system: HCT-116
[13] = system: HCT-15
[14] = system: HL-60
[15] = system: HOP-62
[16] = system: HOP-92
[17] = system: HT-29
[18] = system: Hs-578T
[19] = system: IGROV-1
[20] = system: K562
[21] = system: KM12
[22] = system: LOX IMVI
[23] = system: M14
[24] = system: MCF7
[25] = system: MDA-MB-231
[26] = system: MDA-MB-435
[27] = system: MDA-N
[28] = system: MOLT-4
[29] = system: Malme-3M
[30] = system: NCI-H226
[31] = system: NCI-H23
[32] = system: NCI-H460
[33] = system: NCI-H522
[34] = system: NCI/ADR-RES
[35] = system: OVCAR-3
[36] = system: OVCAR-4
[37] = system: OVCAR-5
[38] = system: OVCAR-8
[39] = system: PC-3
[40] = system: RPMI-8226
[41] = system: RXF 393
[42] = system: SF-268
[43] = system: SF-295
[44] = system: SF-539
[45] = system: SK-MEL-28
[46] = system: SK-MEL-2
[47] = system: SK-MEL-5
[48] = system: SK-OV-3
[49] = system: SN12C
[50] = system: SNB-19
[51] = system: SNB-75
[52] = system: SR
[53] = system: SW-620
[54] = system: T47D
[55] = system: TK-10
[56] = system: U-251
[57] = system: UACC-257
[58] = system: UACC-62
[59] = system: UO-31

Structure (SMILES): CSc1c(C#N)c(N)nc2c(/N=N\c3ccc(Br)cc3)c(N)nn12
- GI50 [1]: 6.17 µM (inactive)
- GI50 [2]: 24 µM (inactive)
- GI50 [3]: 8.99 µM (inactive)
- GI50 [4]: 7 µM (inactive)
- GI50 [5]: 12.4 µM (inactive)
- GI50 [6]: 12.6 µM (inactive)
- GI50 [7]: 3.12 µM (inactive)
- GI50 [8]: 10 µM (inactive)
- GI50 [9]: 6.14 µM (inactive)
- GI50 [10]: 7.78 µM (inactive)
- GI50 [11]: 8.87 µM (inactive)
- GI50 [12]: 6.34 µM (inactive)
- GI50 [13]: 3500 nM
- GI50 [14]: 2.82 µM (inactive)
- GI50 [15]: 11.4 µM (inactive)
- GI50 [16]: 6.81 µM (inactive)
- GI50 [17]: 9.53 µM (inactive)
- GI50 [18]: 2.37 µM (inactive)
- GI50 [19]: 3.01 µM (inactive)
- GI50 [20]: 2.75 µM (inactive)
- GI50 [21]: 9.02 µM (inactive)
- GI50 [22]: 1.96 µM (inactive)
- GI50 [23]: 8.83 µM (inactive)
- GI50 [24]: 3.16 µM (inactive)
- GI50 [25]: 6.97 µM (inactive)
- GI50 [26]: 9.66 µM (inactive)
- GI50 [27]: 6.71 µM (inactive)
- GI50 [28]: 3.63 µM (inactive)
- GI50 [29]: 8.69 µM (inactive)
- GI50 [30]: 21.5 µM (inactive)
- GI50 [31]: 6.25 µM (inactive)
- GI50 [32]: 12.8 µM (inactive)
- GI50 [33]: 6.41 µM (inactive)
- GI50 [34]: 17.7 µM (inactive)
- GI50 [35]: 2.95 µM (inactive)
- GI50 [36]: 7.21 µM (inactive)
- GI50 [37]: 16.6 µM (inactive)
- GI50 [38]: 5.85 µM (inactive)
- GI50 [39]: 8.3 µM (inactive)
- GI50 [40]: 9.84 µM (inactive)
- GI50 [41]: 7.57 µM (inactive)
- GI50 [42]: 5.82 µM (inactive)
- GI50 [43]: 8.63 µM (inactive)
- GI50 [44]: 9.18 µM (inactive)
- GI50 [45]: 10.7 µM (inactive)
- GI50 [46]: 4.48 µM (inactive)
- GI50 [47]: 18.1 µM (inactive)
- GI50 [48]: 21.2 µM (inactive)
- GI50 [49]: 6.65 µM (inactive)
- GI50 [50]: 28.4 µM (inactive)
- GI50 [51]: 10.6 µM (inactive)
- GI50 [52]: 2.55 µM (inactive)
- GI50 [53]: 5.64 µM (inactive)
- GI50 [54]: 2 µM (inactive)
- GI50 [55]: 15 µM (inactive)
- GI50 [56]: 6.58 µM (inactive)
- GI50 [57]: 8.05 µM (inactive)
- GI50 [58]: 7.26 µM (inactive)
- GI50 [59]: 14.8 µM (inactive)

Structure (SMILES): CN(C)CCN1Nc2c3ccccc3nc3c(C(=O)NCCCN(C)CCCNC(=O)c4ccc5c6c(c7ccccc7nc46)NN5CCN(C)C)ccc1c23
- GI50 [1]: < 0.01 µM (active)
- GI50 [2]: 0.0659 µM (active)
- GI50 [3]: < 0.01 µM (active)
- GI50 [4]: < 0.01 µM (active)
- GI50 [5]: 0.178 µM (active)
- GI50 [6]: 0.199 µM (active)
- GI50 [7]: 0.0274 µM (active)
- GI50 [8]: 0.0143 µM (active)
- GI50 [9]: 0.0217 µM (active)
- GI50 [10]: 0.0504 µM (active)
- GI50 [11]: < 0.01 µM (active)
- GI50 [12]: < 0.01 µM (active)
- GI50 [13]: 178 nM
- GI50 [14]: 0.012 µM (active)
- GI50 [15]: 0.0104 µM (active)
- GI50 [16]: 0.305 µM (active)
- GI50 [17]: < 0.01 µM (active)
- GI50 [18]: 0.0352 µM (active)
- GI50 [19]: < 0.01 µM (active)
- GI50 [20]: < 0.01 µM (active)
- GI50 [21]: < 0.01 µM (active)
- GI50 [22]: < 0.01 µM (active)
- GI50 [23]: 0.0353 µM (active)
- GI50 [24]: < 0.01 µM (active)
- GI50 [25]: 0.0581 µM (active)
- GI50 [26]: < 0.01 µM (active)
- GI50 [27]: < 0.01 µM (active)
- GI50 [28]: < 0.01 µM (active)
- GI50 [29]: < 0.01 µM (active)
- GI50 [30]: 0.0187 µM (active)
- GI50 [31]: 0.0202 µM (active)
- GI50 [32]: < 0.01 µM (active)
- GI50 [33]: < 0.01 µM (active)
- GI50 [34]: 1.36 µM (inactive)
- GI50 [35]: 0.0333 µM (active)
- GI50 [36]: 0.0266 µM (active)
- GI50 [37]: 0.0322 µM (active)
- GI50 [38]: < 0.01 µM (active)
- GI50 [39]: < 0.01 µM (active)
- GI50 [40]: < 0.01 µM (active)
- GI50 [41]: 0.15 µM (active)
- GI50 [42]: 0.0112 µM (active)
- GI50 [43]: < 0.01 µM (active)
- GI50 [44]: 0.257 µM (active)
- GI50 [45]: 0.0498 µM (active)
- GI50 [46]: 0.0109 µM (active)
- GI50 [47]: 0.0147 µM (active)
- GI50 [48]: < 0.01 µM (active)
- GI50 [49]: < 0.01 µM (active)
- GI50 [50]: < 0.01 µM (active)
- GI50 [51]: < 0.01 µM (active)
- GI50 [52]: < 0.01 µM (active)
- GI50 [53]: < 0.01 µM (active)
- GI50 [54]: 0.153 µM (active)
- GI50 [55]: 0.132 µM (active)
- GI50 [56]: < 0.01 µM (active)
- GI50 [57]: 0.0224 µM (active)
- GI50 [58]: 0.0173 µM (active)
- GI50 [59]: 0.0692 µM (active)
